Test results published in patent US9096593B2, “Compounds and methods for kinase modulation, and indications therefor” (Plexxikon Inc., priority 2009, dated 2015).

Legend:
[1] = target: Flt-3 kinase (Homo sapiens (Human), UniProt P36888); assay: Flt-3 kinase biochemical activity assay (AlphaScreen, biotin-(E4Y)10 phosphorylation); conditions: 100 μM ATP
Method: In one assay the biochemical activity IC50 values are determined with respect to inhibition of Flt-3 kinase activity, where inhibition of phosphorylation of a peptide substrate is measured as a function of compound concentration. Compounds to be tested, dissolved in DMSO (1 μL), are added to a white 384-well plate (Costar #3705). Working stocks of Flt-3 kinase (Invitrogen), biotin-(E4Y)10 substrate (Upstate Biotech, Cat#12-440), and ATP (Sigma, Cat#A-3377) are prepared in 25 mM Hepes pH 7.5, 5 mM MgCl2, 5 mM MnCl2, 1 mM DTT, and 0.01% Tween-20. All components are added to the 384-well plate for a final concentration of 1 ng/well Flt-3, 30 nM biotin-(E4Y)10 and 100 μM ATP in a volume of 20 μL. Each sample is at 5% DMSO. The plate is then incubated for 1 hour at room temperature. Just before use, working stocks of donor and acceptor beads from the AlphaScreen PY20 Detection Kit (PerkinElmer, Cat#676601M) are prepared in 25 mM Hepes pH 7.5, pH 7.4, 100 mM EDTA. 0.3% BSA. To stop the reaction, the plate is uncovered in the dark and 5 μL of Donor Beads solution (Streptavidin beads) is added to each well. The plate is incubated at room temperature for 20 minutes. Five microliters of Acceptor Beads solution (PY20 coated beads) are then added to each well. The final concentration of each bead is 10 μg/mL. The plates are incubated at room temperature for 60 minutes. Fluorescence signal is recorded on the Envision reader. Phosphorylated substrate results in binding of the PY20 antibody and association of the donor and acceptor beads such that signal correlates with kinase activity. The signal vs. compound concentration is used to determine the IC50.

[2] = target: Fms kinase (Homo sapiens (Human), UniProt P07333); assay: Fms kinase biochemical activity assay (AlphaScreen, biotin-(E4Y)10 phosphorylation); conditions: 100 μM ATP; read-out: Biochemical (IC50 μM) Fms
Fms kinase, sequence (P07333 20-972): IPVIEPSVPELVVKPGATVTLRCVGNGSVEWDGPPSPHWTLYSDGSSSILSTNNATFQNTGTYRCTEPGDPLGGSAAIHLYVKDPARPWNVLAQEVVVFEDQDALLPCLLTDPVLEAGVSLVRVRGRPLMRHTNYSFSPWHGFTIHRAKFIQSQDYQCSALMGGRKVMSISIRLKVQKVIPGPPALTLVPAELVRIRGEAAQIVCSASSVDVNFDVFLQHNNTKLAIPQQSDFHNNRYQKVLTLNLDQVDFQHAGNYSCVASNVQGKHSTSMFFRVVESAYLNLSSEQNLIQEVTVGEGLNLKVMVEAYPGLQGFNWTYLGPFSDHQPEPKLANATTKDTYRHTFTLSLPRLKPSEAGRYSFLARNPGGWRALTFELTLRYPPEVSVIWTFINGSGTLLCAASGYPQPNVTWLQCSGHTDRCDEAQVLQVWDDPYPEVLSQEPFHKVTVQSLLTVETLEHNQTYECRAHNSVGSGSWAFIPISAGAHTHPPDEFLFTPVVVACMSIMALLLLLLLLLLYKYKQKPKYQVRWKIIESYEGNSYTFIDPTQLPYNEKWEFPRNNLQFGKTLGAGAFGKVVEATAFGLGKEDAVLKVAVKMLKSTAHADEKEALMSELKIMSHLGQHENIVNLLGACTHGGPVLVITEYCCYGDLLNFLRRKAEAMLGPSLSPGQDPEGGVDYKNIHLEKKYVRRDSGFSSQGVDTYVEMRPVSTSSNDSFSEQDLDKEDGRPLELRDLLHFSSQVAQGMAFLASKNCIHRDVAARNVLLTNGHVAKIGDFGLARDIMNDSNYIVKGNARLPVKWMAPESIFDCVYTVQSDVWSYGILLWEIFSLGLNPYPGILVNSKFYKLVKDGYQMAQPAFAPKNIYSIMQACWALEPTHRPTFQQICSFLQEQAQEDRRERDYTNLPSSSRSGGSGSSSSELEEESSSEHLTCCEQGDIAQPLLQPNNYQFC
Method: In one assay the biochemical activity IC50 values are determined with respect to inhibition of Fms kinase activity, where inhibition of phosphorylation of a peptide substrate is measured as a function of compound concentration. Compounds to be tested, dissolved in DMSO (1 μL), are added to a white 384-well plate (Costar #3705). Working stocks of Fms kinase (Invitrogen #PV3249), biotin-(E4Y)10 substrate (Upstate Biotech, Cat#12-440), and ATP (Sigma, Cat#A-3377) are prepared in 25 mM Hepes pH 7.5, 0.5 mM MgCl2, 2 mM MnCl2, 2 mM DTT, 0.01% BSA, and 0.01% Tween-20. All components are added to the 384-well plate for a final concentration of 1 ng/well Fms, 30 nM biotin-(E4Y)10 (Upstate Biotechnology) and 100 μM ATP in a volume of 20 μL. Each sample is at 5% DMSO. The plate is then incubated for 20 minutes at 30° C. Just before use, working stocks of donor and acceptor beads from the AlphaScreen PY20 Detection Kit (PerkinElmer, Cat#676601M) are prepared in 25 mM Hepes pH 7.5, pH 7.4, 100 mM EDTA, 0.01% BSA. To stop the reaction, the plate is uncovered in the dark and 5 μL of Donor Beads solution (Streptavidin beads) is added to each well. The plate is incubated at room temperature for 20 minutes. Five microliters of Acceptor Beads solution (PY20 coated beads) are then added to each well. The final concentration of each bead is 10 μg/mL. The plates are incubated at room temperature for 60 minutes. Fluorescence signal is recorded on the Envision reader. […] The signal vs. compound concentration is used to determine the IC50.

[3] = target: BCR-FMS/BaF3 cells (Homo sapiens, UniProt P07333); assay: BCR-FMS/BaF3 cell proliferation assay (ATPlite); type: cell-based; conditions: read-out: Cell based (IC50 μM) BCR/BaF3 (Fms); BCR-FMS/BaF3 cells, 3 days
BCR-FMS/BaF3 cells, sequence (P07333 20-972 limits assumed, change not shown): as the sequence (P07333 20-972) above
Method: Compounds are assessed in a variety of cell based assays. For example BCR-FMS/BaF3, BCR-KIT/BaF3, M-NFS-60, M-07e, and BAC1.2F5 cell proliferation assays are used to assess inhibitory activity of Fms or Kit and MV-4-11 cell proliferation assay is used to assess inhibitory activity in Flt-3. […] On day 1, cells are counted, then centrifuged in a conical tube for 5 minutes at 1000 rpm. The supernatant is removed and cells are re-suspended as follows: • BCR-FMS/BaF3 and BCR-KIT/BaF3: resuspend in growth media+1 mg/mL G418 (without WEHI/IL-3) to 2×10^5 cells/mL. • M-NFS-60: resuspend in growth media +62 ng/mL murine M-CSF to 5×10^5 cells/mL. • M-07e: resuspend in growth media +200 ng/mL human SCF to 5×10^5 cells/mL. • BAC1.2F5: resuspend in growth media +36 ng/mL murine M-CSF to 1.4×10^5 cells/mL. • MV-4-11: resuspend in growth media +10% FBS to 5×10^5 cells/mL. […] On day 2, compound at a maximum concentration of 5 mM is serially diluted 1:3 for a total of 8 point titration with DMSO as a control. A 1 μL aliquot of each dilution point is added to 249 μL growth media and 50 μL is added to a well containing cells, providing 10 μM compound for the maximum concentration point. The cells are incubated for 3 days at 37° C. in 5% CO2. […] ATPlite is added to each well as follows: • BCR-FMS/BaF3 and BCR-KIT/BaF3: 25 μL per well. • M-NFS-60: 25 μL per well. • M-07c: 40 μL per well. • BAC1.2F5: 50 μL per well. • MV-4-11: 40 μL per well. The cells are incubated at room temperature for 10 minutes, then luminescence is read on Safire reader. The measured luminescence correlates directly with cell number, such that the reading as a function of compound concentration is used to determine the IC50 value.

Measured: IC50

Flt-3 kinase, sequence (P36888 27-993): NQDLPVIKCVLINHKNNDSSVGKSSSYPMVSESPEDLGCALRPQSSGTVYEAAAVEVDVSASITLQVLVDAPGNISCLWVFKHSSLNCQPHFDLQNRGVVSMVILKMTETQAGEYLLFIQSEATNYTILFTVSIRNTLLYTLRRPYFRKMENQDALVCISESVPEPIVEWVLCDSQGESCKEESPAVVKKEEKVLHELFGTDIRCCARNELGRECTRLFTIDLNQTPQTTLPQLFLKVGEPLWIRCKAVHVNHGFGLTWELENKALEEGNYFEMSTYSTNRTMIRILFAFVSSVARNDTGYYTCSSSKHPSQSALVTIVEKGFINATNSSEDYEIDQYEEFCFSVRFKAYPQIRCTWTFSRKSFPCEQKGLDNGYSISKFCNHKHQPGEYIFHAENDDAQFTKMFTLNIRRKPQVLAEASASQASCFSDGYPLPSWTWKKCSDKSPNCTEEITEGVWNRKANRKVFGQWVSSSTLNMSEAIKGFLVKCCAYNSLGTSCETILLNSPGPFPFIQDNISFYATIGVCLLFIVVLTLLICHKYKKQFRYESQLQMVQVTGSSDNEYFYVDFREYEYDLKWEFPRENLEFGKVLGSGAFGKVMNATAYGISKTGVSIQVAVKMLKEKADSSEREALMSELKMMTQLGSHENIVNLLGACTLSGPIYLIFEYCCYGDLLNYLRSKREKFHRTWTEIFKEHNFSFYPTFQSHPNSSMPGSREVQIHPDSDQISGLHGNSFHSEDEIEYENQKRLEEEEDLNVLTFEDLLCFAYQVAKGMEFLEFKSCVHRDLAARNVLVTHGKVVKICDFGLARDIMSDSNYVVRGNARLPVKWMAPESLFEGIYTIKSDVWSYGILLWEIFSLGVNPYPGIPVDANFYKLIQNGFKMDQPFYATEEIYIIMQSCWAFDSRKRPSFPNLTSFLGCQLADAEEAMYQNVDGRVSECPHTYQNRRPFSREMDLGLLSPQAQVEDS

FC(F)(F)c1cnc2[nH]cc(Cc3ccc(NCc4ccc(C(F)(F)F)nc4)nc3)c2c1 [Compound P-1644, (6-Trifluoromethyl-pyridin-3-ylmethyl)-[5-(5-trifluoromethyl-1H-pyrrolo[2,3-b]pyridin-3-ylmethyl)-pyridin-2-yl]-amine]
< 0.1 µM: all assays above

COc1ncc(CNc2ccc(Cc3c[nH]c4ncc(C(F)(F)F)cc34)c(F)n2)cc1F [Compound P-1646, (5-Fluoro-6-methoxy-pyridin-3-ylmethyl)-[6-fluoro-5-(5-trifluoromethyl-1H-pyrrolo[2,3-b]pyridin-3-ylmethyl)-pyridin-2-yl]-amine]
< 0.1 µM: all assays above

Fc1cc(CNc2ncc(Cc3c[nH]c4ncc(Cl)cc34)cn2)cc(C(F)(F)F)c1 [Compound P-2009, [5-(5-Chloro-1H-pyrrolo[2,3-b]pyridin-3-ylmethyl)-pyrimidin-2-yl]-(3-fluoro-5-trifluoromethyl-benzyl)-amine]
< 0.1 µM: all assays above
